{
  "source": "ChEMBL document CHEMBL6178018",
  "about": "“Design of an Oral STING Agonist through Intramolecular Hydrogen Bond Ring Mimicking to Achieve Complete Tumor Regression” (J Med Chem, 2025)",
  "key": {"[1]": {"test": "AUC in mouse at 10 mg/kg, po by LC-MS/MS analysis", "type": "ADME, organism-based", "conditions": "in vivo"}, "MC-38 [2]": {"system": "MC-38", "test": "In vivo antitumor activity against mouse MC-38 cells inoculated in C57BL/6 mouse assessed as complete tumor regression (CR) at 60 mg/kg, po Q3D co-administered with anti-PD1 measured for 15 to 20 days", "type": "functional", "conditions": "time 15-20 day"}, "[3]": {"test": "Oral bioavailability in mouse at 10 mg/kg by LC-MS/MS analysis", "type": "ADME, organism-based", "conditions": "in vivo"}, "THP1-Blue ISG": {"system": "THP1-Blue ISG", "test": "Induction of STING phosphorylation in human THP1-Blue ISG cells at 13 to 50 uM measured after 3 hrs by Western blot analysis", "type": "cell-based", "conditions": "filed as agonist, dose 13-50 µM"}, "[4]": {"test": "AUC in mouse at 5 mg/kg, iv by LC-MS/MS analysis", "type": "ADME, organism-based", "conditions": "in vivo"}, "MC-38 [5]": {"system": "MC-38", "test": "In vivo antitumor activity against mouse MC-38 cells inoculated in C57BL/6 mouse assessed as increase in moue survival time at 60 mg/kg, po Q3D co-administered with anti-PD1 measured for 15 to 20 days", "type": "functional, organism-based", "conditions": "time 15-20 day"}, "[6]": {"target": "T1, Interferon regulatory factor 3 (Homo sapiens) (UniProt Q14653)", "T1 sequence (whole entry)": "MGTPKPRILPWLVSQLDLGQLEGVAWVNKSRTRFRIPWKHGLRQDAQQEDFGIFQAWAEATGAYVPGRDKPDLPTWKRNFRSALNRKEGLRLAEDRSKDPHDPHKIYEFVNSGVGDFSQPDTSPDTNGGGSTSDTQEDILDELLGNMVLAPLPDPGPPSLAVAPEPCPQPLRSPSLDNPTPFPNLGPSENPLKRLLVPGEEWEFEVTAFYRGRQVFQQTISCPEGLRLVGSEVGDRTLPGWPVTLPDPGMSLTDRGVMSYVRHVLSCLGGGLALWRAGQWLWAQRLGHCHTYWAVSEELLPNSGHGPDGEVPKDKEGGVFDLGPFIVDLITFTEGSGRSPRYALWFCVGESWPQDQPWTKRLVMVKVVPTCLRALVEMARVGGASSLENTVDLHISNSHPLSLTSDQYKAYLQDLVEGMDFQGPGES", "test": "Induction of IRF3 phosphorylation in human THP1-Blue ISG cells at 13 to 50 uM measured after 3 hrs by Western blot analysis", "type": "cell-based", "conditions": "filed as agonist, dose 13-50 µM"}, "THP-1 [7]": {"system": "THP-1", "test": "Induction of interferon response in STING knock out human THP-1 cells assessed as fold change in stimulation activity at 13 to 25 uM measured after 24 hrs incubation by QUANTI-Luc4 based microplate reader", "type": "functional, cell-based", "conditions": "dose 13-25 µM"}, "[8]": {"test": "Clearance in mouse at 10 mg/kg, po by LC-MS/MS analysis", "type": "ADME, organism-based", "conditions": "in vivo"}, "[9]": {"test": "Chemical stability of the compound in MeOH/H2O solvent assessed as half life by LC-MS/MS analysis", "type": "physicochemical"}, "MC-38 [10]": {"system": "MC-38", "test": "In vivo antitumor activity against mouse MC-38 cells inoculated in C57BL/6 mouse assessed as increase in CXCL10 level in tumor at 60 mg/kg, po Q3D co-administered with anti-PD1 measured for 15 to 20 days", "type": "functional, organism-based", "conditions": "time 15-20 day"}, "MC-38 [11]": {"system": "MC-38", "test": "In vivo antitumor activity against mouse MC-38 cells inoculated in C57BL/6 mouse assessed as increase in IFN-gamma level in serum at 60 mg/kg, po Q3D co-administered with anti-PD1 measured for 15 to 20 days", "type": "functional, organism-based", "conditions": "time 15-20 day"}, "MC-38 [12]": {"system": "MC-38", "test": "In vivo antitumor activity against mouse MC-38 cells inoculated in C57BL/6 mouse assessed as as increase in moue survival time at 60 mg/kg, po Q3D measured for 15 to 20 days", "type": "functional, organism-based", "conditions": "time 15-20 day"}, "MC-38 [13]": {"system": "MC-38", "test": "In vivo antitumor activity against mouse MC-38 cells inoculated in C57BL/6 mouse assessed as complete tumor regression (CR) at 60 mg/kg, po two doses measured for 15 to 20 days relative to total number of mouse", "type": "functional", "conditions": "time 15-20 day"}, "MC-38 [14]": {"system": "MC-38", "test": "In vivo antitumor activity against mouse MC-38 cells inoculated in C57BL/6 mouse assessed as complete tumor regression (CR) at 60 mg/kg, po Q3D measured for 15 to 20 days", "type": "functional, organism-based", "conditions": "time 15-20 day"}, "[15]": {"target": "T2, Stimulator of interferon genes protein (Homo sapiens, UniProt Q86WV6)", "T2 sequence (Q86WV6 whole entry, looked up, change not shown)": "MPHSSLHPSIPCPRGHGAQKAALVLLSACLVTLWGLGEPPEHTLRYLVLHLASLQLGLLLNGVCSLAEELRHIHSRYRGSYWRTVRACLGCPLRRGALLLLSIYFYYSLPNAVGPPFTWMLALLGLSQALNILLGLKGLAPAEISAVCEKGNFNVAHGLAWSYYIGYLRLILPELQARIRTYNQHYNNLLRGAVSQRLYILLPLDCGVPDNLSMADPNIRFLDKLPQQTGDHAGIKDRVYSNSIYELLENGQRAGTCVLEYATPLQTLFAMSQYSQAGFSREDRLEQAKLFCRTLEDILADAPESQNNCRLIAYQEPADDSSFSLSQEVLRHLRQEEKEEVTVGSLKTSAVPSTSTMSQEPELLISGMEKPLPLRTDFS", "test": "Agonist activity at human STING HAQ variant in human THP1-Blue ISG cells assessed as fold change in stimulation activity measured after 24 hrs incubation by QUANTI-Blue based microplate reader", "type": "cell-based"}, "MC-38 [16]": {"system": "MC-38", "test": "In vivo antitumor activity against mouse MC-38 cells inoculated in C57BL/6 mouse assessed as long-term immunological memory by measuring tumor recurrence at 60 mg/kg, po Q3D measured for 15 to 20 days followed by cured rechallenged with MC-38 cells after 84 days of first dose and measured for additional 74 days (total 157 days observation)", "type": "functional, organism-based", "conditions": "time 157.0 day"}, "[17]": {"test": "Half life in mouse at 10 mg/kg, po by LC-MS/MS analysis", "type": "ADME, organism-based", "conditions": "in vivo"}, "MC-38 [18]": {"system": "MC-38", "test": "In vivo antitumor activity against mouse MC-38 cells inoculated in C57BL/6 mouse assessed as increase in IL-6 level in tumor at 60 mg/kg, po Q3D co-administered with anti-PD1 measured for 15 to 20 days", "type": "functional, organism-based", "conditions": "time 15-20 day"}, "[19]": {"test": "Cmax in mouse at 5 mg/kg, iv by LC-MS/MS analysis", "type": "ADME, organism-based", "conditions": "in vivo"}, "MC-38 [20]": {"system": "MC-38", "test": "In vivo antitumor activity against mouse MC-38 cells inoculated in C57BL/6 mouse assessed as increase in CXCL10 level in serum at 60 mg/kg, po Q3D co-administered with anti-PD1 measured for 15 to 20 days", "type": "functional, organism-based", "conditions": "time 15-20 day"}, "[21]": {"test": "Half life in mouse at 5 mg/kg, iv by LC-MS/MS analysis", "type": "ADME, organism-based", "conditions": "in vivo"}, "[22]": {"test": "Metabolic stability in human liver microsomes assessed as half life at 10 uM measured up to 60 mins by LC-MS/MS analysis", "type": "ADME, Microsome"}, "[23]": {"target": "T3, Stimulator of interferon genes protein (Mus musculus, UniProt Q3TBT3)", "T3 sequence (Q3TBT3 whole entry)": "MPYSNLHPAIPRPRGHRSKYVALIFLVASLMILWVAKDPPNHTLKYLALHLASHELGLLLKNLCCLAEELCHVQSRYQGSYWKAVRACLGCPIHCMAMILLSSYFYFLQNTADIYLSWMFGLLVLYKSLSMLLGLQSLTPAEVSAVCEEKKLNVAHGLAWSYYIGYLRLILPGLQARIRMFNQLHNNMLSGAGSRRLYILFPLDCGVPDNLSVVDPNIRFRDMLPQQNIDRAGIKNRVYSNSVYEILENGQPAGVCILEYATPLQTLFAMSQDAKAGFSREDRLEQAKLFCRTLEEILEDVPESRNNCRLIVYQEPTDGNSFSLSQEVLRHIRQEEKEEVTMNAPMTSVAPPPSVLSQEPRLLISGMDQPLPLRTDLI", "test": "Agonist activity at mouse STING expressed in human THP1-Dual cells assessed as fold change in stimulation activity measured after 24 hrs incubation by QUANTI-Luc4 based microplate reader", "type": "cell-based"}, "THP-1 [24]": {"system": "THP-1", "test": "Induction of interferon secretion in human THP-1 cells assessed as IFN-beta level at 13 uM measured after 24 hrs by ELISA", "type": "functional, cell-based"}, "[25]": {"test": "Clearance in mouse at 5 mg/kg, iv by LC-MS/MS analysis", "type": "ADME, organism-based", "conditions": "in vivo"}, "MC-38 [26]": {"system": "MC-38", "test": "In vivo antitumor activity against mouse MC-38 cells inoculated in C57BL/6 mouse assessed as increase in IFN-gamma level in tumor at 60 mg/kg, po Q3D co-administered with anti-PD1 measured for 15 to 20 days", "type": "functional, organism-based", "conditions": "time 15-20 day"}, "[27]": {"test": "Cmax in mouse at 10 mg/kg, po by LC-MS/MS analysis", "type": "ADME, organism-based", "conditions": "in vivo"}, "[28]": {"test": "Stability of the compound in human plasma assessed as half life by LC-MS/MS analysis", "type": "ADME, cell-free"}, "[29]": {"target": "T2, Stimulator of interferon genes protein", "test": "Agonist activity at STING R232 mutant (unknown origin) expressed in human THP1-Dual cells assessed as fold change in stimulation activity measured after 24 hrs incubation by QUANTI-Luc4 based microplate reader", "type": "cell-based"}, "MC-38 [30]": {"system": "MC-38", "test": "In vivo antitumor activity against mouse MC-38 cells inoculated in C57BL/6 mouse assessed as increase in IL-6 level in serum at 60 mg/kg, po Q3D co-administered with anti-PD1 measured for 15 to 20 days", "type": "functional, organism-based", "conditions": "time 15-20 day"}, "[31]": {"test": "Metabolic stability in mouse liver microsomes assessed as half life at 10 uM measured up to 60 mins by LC-MS/MS analysis", "type": "ADME, Microsome"}, "[32]": {"test": "Stability of the compound in mouse plasma assessed as half life by LC-MS/MS analysis", "type": "ADME, cell-free"}},
  "note": "The source made the active and inactive calls. The rule behind the calls is not given here.",
  "data": [
    {"smiles": "CC[C@H](CNC(=O)c1[se]c2cc(OC)c(OC)cc2c1F)C(=O)O", "values": [
      {"measurement": "AUC", "setting": "[1]", "result": 23800, "unit": "ng·h/mL"},
      {"measurement": "Activity", "setting": "MC-38 [2]", "result": "Active; Compound Effect Significantly Exceeded Than Its Parent Compound Zsa-52 (Cr = 60%)"},
      {"measurement": "bioavailability", "setting": "[3]", "result": 58, "unit": "%"},
      {"measurement": "Activity", "setting": "THP1-Blue ISG", "result": "Active"},
      {"measurement": "AUC", "setting": "[4]", "result": 20600, "unit": "ng·h/mL"},
      {"measurement": "Activity", "setting": "MC-38 [5]", "result": "Active"},
      {"measurement": "Activity", "setting": "[6]", "result": "Active"},
      {"measurement": "Activity", "setting": "THP-1 [7]", "result": "inactive"},
      {"measurement": "CL/F", "setting": "[8]", "result": 6.94, "unit": "mL/min/kg"},
      {"measurement": "half-life", "setting": "[9]", "result": 0.8, "unit": "h"},
      {"measurement": "Activity", "setting": "MC-38 [10]", "result": "Active"},
      {"measurement": "Activity", "setting": "MC-38 [11]", "result": "Active"},
      {"measurement": "Activity", "setting": "MC-38 [12]", "result": "Active"},
      {"measurement": "Activity", "setting": "MC-38 [13]", "result": 60, "unit": "%"},
      {"measurement": "Activity", "setting": "MC-38 [14]", "result": "Active"},
      {"measurement": "EC50", "setting": "[15]", "result": 3.3, "unit": "µM"},
      {"measurement": "Activity", "setting": "MC-38 [16]", "result": "Active"},
      {"measurement": "half-life", "setting": "[17]", "result": 1.1, "unit": "h"},
      {"measurement": "Activity", "setting": "MC-38 [18]", "result": "Active"},
      {"measurement": "Cmax", "setting": "[19]", "result": 48400, "unit": "ng/mL"},
      {"measurement": "Activity", "setting": "MC-38 [20]", "result": "Active"},
      {"measurement": "half-life", "setting": "[21]", "result": 0.6, "unit": "h"},
      {"measurement": "half-life at 10 µM", "setting": "[22]", "result": "> 1", "unit": "h"},
      {"measurement": "EC50", "setting": "[23]", "result": 9.3, "unit": "µM"},
      {"measurement": "Activity", "setting": "THP-1 [24]", "result": "Active"},
      {"measurement": "clearance", "setting": "[25]", "result": 4.04, "unit": "mL/min/kg"},
      {"measurement": "Activity", "setting": "MC-38 [26]", "result": "Active"},
      {"measurement": "Cmax", "setting": "[27]", "result": 20600, "unit": "ng/mL"},
      {"measurement": "half-life", "setting": "[28]", "result": "> 1", "unit": "h"},
      {"measurement": "EC50", "setting": "[29]", "result": 9, "unit": "µM"},
      {"measurement": "Activity", "setting": "MC-38 [30]", "result": "Active"},
      {"measurement": "half-life at 10 µM", "setting": "[31]", "result": "> 1", "unit": "h"},
      {"measurement": "half-life", "setting": "[32]", "result": "> 1", "unit": "h"}
    ]}
  ]
}
